experiment: gradient 5% acetonitrile 3 min, to 50% in 2 min, to 85% in 15 min, held 3 min, 100 µL/min; conditions: column: Zorbax Extend-C18 2.1 x 50 mm; eluents: water / acetonitrile, 0.1% formic acid
Summary of the method: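 The system's dead and dwell volumes were 40 μL and 900 μL, with a Zorbax Extend-C18 column (2.1 × 50 mm, 1.8 μm) run at 100 μL/min in water and acetonitrile containing 0.1% formic acid each. Pure standards were analyzed in mixtures of ~100 molecules by HPLC–quadrupole time-of-flight mass spectrometry in positive and negative ionization mode. Retention time was assigned from computationally picked, manually inspected adduct peaks.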

Row | Structure (SMILES) | RP-LC retention time [s]
1 | CCc1nc(-c2cccc(-c3noc(COc4cccc(C)c4)n3)c2)cs1 | 1390
2 | CCOc1ccccc1N1CCN(C(=O)c2csc(C(=O)NC3CC3)n2)CC1 | 790
3 | CNC(Cc1ccccc1)c1ccc(OC)cc1 (stereo unspecified) | 567
4 | CCCn1c(=O)sc2cc(S(=O)(=O)N3CCC(C(=O)NC4CCCCC4)CC3)ccc21 | 967
5 | COc1ccc(C)cc1NC(=O)C1CCN(c2cc(N3CCSCC3)ncn2)CC1 | 717
6 | O=C(N[C@H]1C[C@@H]2C[C@H]1CN2C(=O)c1ccc(F)c(Cl)c1)c1ccccc1 | 772
7 | Cc1ccc(C#CC(C)(O)C(C)(C)C)cn1 (stereo unspecified) | 722
8 | CCc1ccc(NC(=O)C2CCCN(c3nc4c(s3)c(C)nn4-c3ccc(OC)cc3)C2)cc1 (stereo unspecified) | 1360
9 | CCCc1cc(N2CCN(C(=O)c3ccn(CC)n3)CC2)nc2nnc(CC)n12 | 616
10 | CCOC(C)C(/C=N/NC(N)=S)=N/NC(N)=S (stereo unspecified) | 654
11 | Cc1cccc(N2C(=O)CN(S(C)(=O)=O)CC2(C)C(=O)NC2CCCCCCC2)c1C (stereo unspecified) | 951
12 | Fc1ccc(-c2csc(Cc3nc(-c4ccccc4Cl)no3)n2)cc1 | 1260
13 | Cc1cc(NC(=O)N(C)CC2CCOC2)ccc1Br (stereo unspecified) | 798
14 | CC(C)n1cnc(S(=O)(=O)N2CCCC(C(=O)Nc3ccccc3F)C2)c1 (stereo unspecified) | 772
15 | COc1cccc(-n2ccc(=O)c(-c3nc(-c4cccc(OC)c4OC)no3)n2)c1 | 826
16 | O=c1ccc(N2CCC(NS(=O)(=O)c3cccnc3)C2)nn1CCOc1ccccc1 (stereo unspecified) | 738
17 | CCC(=O)N(CCOC)CC(=O)N1CCc2sccc2C1COc1ccc(Cl)cc1 (stereo unspecified) | 907
18 | CNC(=O)C1CN(S(=O)(=O)c2ccccc2)CC12CCCCC2 (stereo unspecified) | 776
19 | O=C(NC1CCCCC1)C1CCCN(C(=O)c2cc(-c3ccccn3)n[nH]2)C1 (stereo unspecified) | 659
20 | CNC(=O)CCNc1c(-c2ccc(OC)cc2)nc2cnccn12 | 588

Row | Structure (SMILES) | RP-LC retention time [s]
21 | CN1CCN(c2ccc(-c3nc(-c4ccccc4)no3)cn2)CC1 | 664
22 | CCCS(=O)(=O)c1ccc(NC2CCN(Cc3ccccc3)CC2)nn1 | 602
23 | Clc1ccccc1N1CCN(c2cc(-c3nc(-c4ccccc4)no3)c3ccccc3n2)CC1 | 1130
24 | CCCC(=O)N1CCc2c(c(-c3nnc(SC)n3CC)nn2C)C1 | 705
25 | O=C1CCCC(=O)N1CCS(=O)(=O)N1CCN(Cc2nc3ccccc3[nH]2)CC1 | 554
26 | O=C(Nc1ccc(OCC(=O)N2CCN(c3ccccc3)CC2)nc1)C1CC1 | 730
27 | Cc1nn(-c2ccccc2)c2nc(N3CCCC(C(=O)NCCN4CCOCC4)C3)sc12 (stereo unspecified) | 670
28 | O=C(O)C1CCN(c2nc3ccc(-c4ccccc4)nc3s2)CC1 | 868
29 | O=C(c1ccc2cc[nH]c2c1)N1CCN(c2cc(-c3cccs3)[nH]n2)CC1 | 747
30 | O=S(=O)(Cc1noc(-c2ccc(F)cc2F)n1)c1ccc(Cl)cc1 | 1160
31 | COc1ccc(NC(=O)NC2CCN(c3cc(N4CCCC4)cnn3)C2)cc1Cl (stereo unspecified) | 584
32 | Cc1nnc2cc(N3CCN(S(=O)(=O)c4cccs4)CC3)cnn12 | 636
33 | CCCN(C)C(=O)C1CCCCc2nnc(C(C)C)n21 (stereo unspecified) | 622
34 | O=C(c1ccccc1F)N1CCC(COCc2ccccc2)CC1 | 945
35 | CC(=O)N1CCN(c2nc3c(s2)CC(C(=O)Nc2cccc4c2CCCC4)CC3)CC1 (stereo unspecified) | 632
36 | CCCCS(=O)(=O)N1CCC2(CC1)NCCCN=C2Nc1cccc(F)c1 | 677
37 | CCCC(=O)N1CCN(c2nc3ccccc3n(CC(C)C)c2=O)CC1 | 1000
38 | CN(CC1CCOC1)C(=O)Nc1ccc(C(F)(F)F)cc1 (stereo unspecified) | 783
39 | Cc1ccn2cc(-c3cccc(S(=O)(=O)N4CC(C)OC(C)C4)c3)nc2c1 (stereo unspecified) | 647
40 | COc1ccccc1-c1nc(SCC(=O)N2CCC(C(N)=O)CC2)n[nH]1 | 614

The remaining lines, values ahead:

Row | RP-LC retention time [s] | Structure (SMILES)
41 | 999 | O=c1ccc(-c2cccc(Cl)c2)nn1CCc1nc(-c2ccc3c(c2)OCO3)no1
42 | 610 | Cc1ccc(CNC(=O)Nc2cc3c(cc2N2CCCCC2)n(C)c(=O)n3C)cc1
43 | 625 | COc1ccc(Cl)cc1NC(=O)N1CCN(CCn2cnc3cccnc32)CC1
44 | 677 | O=C(CCc1c(-c2ccc(F)cc2)nc2ccccn12)NCc1cccc(Br)c1
45 | 888 | CCc1nnc(-c2cn(CC(=O)Nc3ccc(F)c(F)c3)c3ccccc23)o1
46 | 733 | CCOc1ccc(CC(=O)NCCc2nc3cccnc3n2C)cc1
47 | 888 | CCOc1ccc(N(C)C(=O)Cn2cccc2-c2nnc(C3CC3)o2)cc1
48 | 835 | Cc1ccc(CNC(=O)CN2CCN(Cc3ccc(F)cc3)C2=O)cc1C
49 | 738 | Clc1ccc(-c2ccc(CNCC3CCCO3)o2)c(Cl)c1 (stereo unspecified)
50 | 906 | CCNC(=O)N1CCCC(c2cccc(C(=O)NCCC3=CCCCC3)c2)C1 (stereo unspecified)
51 | 754 | CCC(C)NC(=O)c1ccc(Cn2nc(C)c(S(=O)(=O)N(C)C)c2C)cc1 (stereo unspecified)
52 | 605 | COc1nn(C)cc1C(=O)NCCn1nc(-c2cccs2)ccc1=O
53 | 890 | Cc1ccc(-n2nc(CO)c(C(=O)NC3CC3)n2)cc1C
54 | 672 | CC1(C(=O)NCc2ccc3c(c2)OCO3)Oc2cccnc2NC1=O (stereo unspecified)
55 | 659 | CCOc1ccc(S(=O)(=O)N2CCCC(C(=O)NCc3ccncc3)C2)cc1C (stereo unspecified)
56 | 744 | COC(=O)Nc1nc(CC(=O)Nc2ccc(F)c(Cl)c2)cs1
57 | 620 | O=C(Cc1cccs1)Nc1ccc2c(c1)CCC(=O)N2
58 | 583 | COC(=O)c1c(NCCN2CCC(C)CC2)c2cccc(Cl)c2[nH]c1=O
59 | 888 | COc1ccc2[nH]c3c(c2c1)CCN(C(=O)CC(C)C)C31C(=O)N(C)c2ccccc21 (stereo unspecified)
60 | 1090 | COc1ccccc1N1CCN(c2cc(SCC(=O)Nc3ccc(F)c(Cl)c3)ncn2)CC1
61 | 835 | CCN1c2cc(F)ccc2C(=O)NC12CCN(C(=O)c1ccccc1C)CC2
62 | 577 | O=C(NC1CC1)C1CCCN(C(=O)c2cc(-c3ccccn3)n[nH]2)C1 (stereo unspecified)
63 | 604 | CCCNC(=O)N1CCN(Cc2nc3cccnc3n2-c2ccc(F)cc2)CC1
64 | 658 | CN(C)c1ccc(CNC(=O)c2nnc(-c3ccc(S(=O)(=O)N(C)C)cc3)o2)cc1
65 | 608 | CCCOc1cc(N2CCN(C(=O)c3ccc4c(c3)OCO4)CC2)nc(C)n1
66 | 1130 | C=CCN(Cc1nc(-c2ccc(C)cc2)no1)C(=O)Nc1ccccc1OC

Row | RP-LC retention time [s] | Structure (SMILES)
67 | 613 | Cc1cc(=O)n(CC(=O)NCc2ccc(Cl)cc2)c(N)n1
68 | 787 | Cc1nnc2ccc(-c3noc(Cc4cccc(F)c4)n3)cn12
69 | 982 | CCOc1ccc(C2Cn3nnc(-c4nc(-c5cccnc5)no4)c3CO2)cc1 (stereo unspecified)
70 | 764 | Cc1cc2nn(CC(=O)NC3CCCCC3)c(=O)n2c(-c2ccccc2)n1
71 | 604 | Cn1c(C(=O)NCc2ccccc2)cc2ccncc21
72 | 773 | COc1ccc(S(=O)(=O)N2CCCC(Cn3cnc4cccnc43)C2)cc1OC (stereo unspecified)
73 | 728 | CCCn1cc(C2=CCN(S(=O)(=O)c3cc(OC)ccc3OC)CC2)c2cccnc21
74 | 757 | CC(C)NC(=O)c1ccc(OCC2CCCN2C(=O)c2ccco2)cc1 (stereo unspecified)
75 | 953 | CN(CCc1noc(COc2ccc(F)cc2)n1)C(=O)Nc1ccc(F)c(Cl)c1
76 | 638 | CCN(CC)c1cc(CNC(=O)Nc2cc(Cl)c(OC)cc2OC)ccn1
77 | 734 | COc1ccc(C2CC(=O)Nc3c(C(=O)O)cn(-c4ccc(F)cc4)c32)cc1OC (stereo unspecified)
78 | 816 | Cc1ccc(CNC(=O)Cn2nc(C)c3nn(-c4ccccc4)c(C)c3c2=O)o1
79 | 788 | CCn1nccc1C(=O)NC1CCN(C2=NS(=O)(=O)C(c3ccc(F)cc3)=C2C)CC1
80 | 765 | O=C(CCn1cnc2cc(-c3noc(-c4cccc(F)c4)n3)ccc21)N1CCCC1
81 | 647 | COc1ccc(C(=O)N(CN2CCCC2=O)c2nccs2)cc1OC
82 | 811 | CCCCOc1ccc(NC(=O)c2cc(=O)c3cc(Br)ccc3o2)c2cccnc12
83 | 931 | CCn1nccc1-c1cccc(-c2noc(CNS(=O)(=O)c3ccc(F)cc3)n2)c1
84 | 608 | COc1ccc(NC(=O)NCCn2c(-c3ccncc3)nc3cccnc32)cc1
85 | 710 | Cn1c(N2CCCC(C(=O)NCc3ccc(Cl)cc3)C2)cc(=O)n(C)c1=O (stereo unspecified)
86 | 789 | COCc1cc(=O)n(CC(=O)Nc2ccccc2F)c(N2CCOCC2)n1
87 | 1110 | Cn1cc(-c2nc(C(=O)Nc3cccc(Cl)c3)cs2)c2cccnc21
88 | 536 | COc1ccc(OC)c(S(=O)(=O)N2CCc3nc(-c4ccccc4)[nH]c3C2)c1
89 | 828 | CCCn1cc(CCNC(=O)Nc2cccc(Cl)c2)c2cccnc21
90 | 676 | O=C(CCc1c(-c2ccc(F)cc2)nc2ccccn12)Nc1cccc(F)c1
91 | 823 | Cc1cc(C(=O)Nc2ccc(-c3nc(Cn4cccn4)c(C)o3)cc2)no1

— the METLIN SMRT retention time set (Domingo-Almenara et al. 2019)
